Experimental data: the NIST ThermoML archive (doi:10.1021/je901063s)
Several values for one entry are separate records, joined by “and”; a condition that tells them apart may be missing. Equal entries are not always repeated. Numbers after ± are expanded uncertainties.

Tests used:
[1] = activity coefficient (dimensionless); of the first substance listed, at infinite dilution; xn = mol fraction of the nth substance listed; conditions: 101 kPa, Liquid, inert gas stripping, headspace analysis in two variants - the classical and the relative, Rayleigh distillation, and circulation still, x1 = 0
[2] = of the first substance listed, at infinite dilution; xn = mol fraction of the nth substance listed; conditions: 101 kPa, Liquid, flow mixing microcalorimeter, x1 = 0

SMILES: CCC(C)(C)O [2-methylbutan-2-ol] + O
- activity coefficient ([1]; 273.35 K): 18.3 ± 1.1
- activity coefficient ([1]; 283.15 K): 24.5 ± 1.5
- activity coefficient ([1]; 293.15 K): 31.7 and 34.6
- activity coefficient ([1]; 303.15 K): 41.3 and 39.2
- activity coefficient ([1]; 313.15 K): 49 and 46.5
- activity coefficient ([1]; 323.15 K): 52.3 and 56.9
- activity coefficient ([1]; 333.15 K): 59.3 and 61.4
- activity coefficient ([1]; 343.15 K): 64.2 ± 3.9
- activity coefficient ([1]; 353.15 K): 67.1 ± 4
- activity coefficient ([1]; 361.25 K): 75.4 ± 4.5
- activity coefficient ([1]; 371.45 K): 73.9 ± 4.4

SMILES: CCCC(C)O (stereo unspecified) [pentan-2-ol] + O
- activity coefficient ([1]; 273.35 K): 58.8 ± 3.5
- activity coefficient ([1]; 283.15 K): 73.9 ± 4.4
- activity coefficient ([1]; 293.15 K): 89.2 and 86.1
- activity coefficient ([1]; 303.15 K): 104 and 103
- activity coefficient ([1]; 313.15 K): 119 ± 7
- activity coefficient ([1]; 323.15 K): 129 ± 8
- activity coefficient ([1]; 333.15 K): 134 ± 8
- activity coefficient ([1]; 343.15 K): 134 ± 8
- activity coefficient ([1]; 353.15 K): 124 ± 7
- activity coefficient ([1]; 363.15 K): 130 ± 8
- activity coefficient ([1]; 371.15 K): 118 ± 7

SMILES: CC(C)C(C)O (stereo unspecified) [3-methyl-2-butanol] + O
- activity coefficient ([1]; 273.35 K): 43.5 ± 2.6
- activity coefficient ([1]; 283.15 K): 61.5 ± 3.7
- activity coefficient ([1]; 293.15 K): 73.9 ± 4.4
- activity coefficient ([1]; 303.15 K): 86.5 ± 5.2
- activity coefficient ([1]; 313.15 K): 96.6 ± 5.8
- activity coefficient ([1]; 323.15 K): 104 ± 6
- activity coefficient ([1]; 333.15 K): 110 ± 7
- activity coefficient ([1]; 343.15 K): 111 ± 7
- activity coefficient ([1]; 353.15 K): 107 ± 6
- activity coefficient ([1]; 371.15 K): 108 ± 7

SMILES: CCC(O)CC [3-pentanol] + O
- activity coefficient ([1]; 273.35 K): 48.7 ± 2.9
- activity coefficient ([1]; 283.15 K): 63.1 ± 3.8
- activity coefficient ([1]; 293.15 K): 75.6 ± 4.5
- activity coefficient ([1]; 303.15 K): 88.7 ± 5.3
- activity coefficient ([1]; 313.15 K): 101 ± 6
- activity coefficient ([1]; 323.15 K): 108 ± 7
- activity coefficient ([1]; 333.15 K): 116 ± 7
- activity coefficient ([1]; 343.15 K): 111 ± 7
- activity coefficient ([1]; 353.15 K): 120 ± 7
- activity coefficient ([1]; 363.15 K): 117 ± 7
- activity coefficient ([1]; 371.15 K): 104 ± 6

SMILES: CCC(C)CO (stereo unspecified) [2-methyl-1-butanol] + O
- partial molar enthalpy ([2]; 288.15 K): -2.67 ± 0.0956 kcal/mol
- partial molar enthalpy ([2]; 298.15 K): -1.98 ± 0.0478 kcal/mol
- partial molar enthalpy ([2]; 308.15 K): -1.29 ± 0.0239 kcal/mol
- activity coefficient ([1]; 273.35 K): 86.3 ± 5.2
- activity coefficient ([1]; 283.15 K): 117 ± 7
- activity coefficient ([1]; 293.15 K): 138 and 134
- activity coefficient ([1]; 303.15 K): 158 and 151
- activity coefficient ([1]; 313.15 K): 163 and 173
- activity coefficient ([1]; 323.15 K): 180 and 173
- activity coefficient ([1]; 333.15 K): 170 and 179
- activity coefficient ([1]; 343.15 K): 169 ± 10
- activity coefficient ([1]; 353.15 K): 160 ± 10
- activity coefficient ([1]; 363.15 K): 162 ± 10

SMILES: CC(C)CCO [3-methylbutan-1-ol] + O
- activity coefficient ([1]; 273.35 K): 94.9 ± 5.7
- activity coefficient ([1]; 283.15 K): 126 ± 8
- activity coefficient ([1]; 293.15 K): 148 and 146
- activity coefficient ([1]; 303.15 K): 161 and 164
- activity coefficient ([1]; 313.15 K): 173 and 175
- activity coefficient ([1]; 323.15 K): 179 and 184
- activity coefficient ([1]; 333.15 K): 182 and 178
- activity coefficient ([1]; 343.15 K): 179 ± 11
- activity coefficient ([1]; 353.15 K): 164 ± 10
- activity coefficient ([1]; 371.15 K): 149 ± 9
